Reference: patent US7291332B2, “Inflammatory mediator antagonists” (SmithKline Beecham Corporation, priority 1998, dated 2007)
Values belong to the molecule of their own block, whether it stands above or below them.

Assays:
[1] = system: TNFα-induced sPAP release, A549 cells; assay: A549 cells: TNFα-induced sPAP assay; format: cell-based, human
Protocol: This assay used A549 cells that had been stably transfected with a reporter gene, comprising the cytokine responsive region of the E-selectin gene coupled to alkaline phosphatase (Ray et al., Biochem J. 328:707-715, 1997). This transfected cell line can be driven to produce sPAP by overnight incubation with TNFα.
A549 cells were plated into 96 well plates to a final concentration of 5×10^4 cells per well in […] of media. Cells were allowed to equilibrate for 24 hours. Putative anti-OSM solid compounds are made up to a stock dilution of 20 mM in DMSO and serially diluted 1:3 in DMSO. This was then further diluted in media (DMEM, 1% heat inactivated FCS, low alkaline phosphatase activity, 1% non-essential amino acids, 2 mM Glutamine, 500 μg ml^−1 G418, (all from Life Technologies), to give a concentration response of 0.09-200 μM in a final concentration of 1% DMSO. The old media was removed from the wells and replaced with diluted compound also containing 3 ng ml^−1 TNFα (R&D Systems), cells were incubated for a further 20 hours. Each dilution was performed in triplicate. 20 μl of media was removed from each well and assayed for sPAP activity using p-Nitrophenyl phosphate (Sigma), as a substrate. […] Optical density of substrate is read at 405-650 nm. Concentration of compound is plotted against OD as a measure of sPAP produced and can be analysed to determine IC50 values.

[2] = system: OSM-induced sPAP release, HepG2 B6 cells; assay: HepG2 B6: OSM-induced sPAP assay; format: cell-based, human
From the text: A HepG2 cell line (ECACC) was stably transfected with six functional STAT3 response elements (REs) upstream of sPAP (secreted placental alkaline phosphatase) cDNA as described below to form HepG2B6. STAT3 (signal transducer and activator of transcription) is an intermediate in the IL-6 cytokine family […] signalling cascade. Following dimerisation of cell surface receptors STAT3 is phosphorylated and will then bind to DNA REs in the nucleus and activate DNA downstream, in this construct that DNA is sPAP. Thus this line can be driven to produce sPAP by overnight incubation in Oncostatin M.
(§1) HepG2 B6 cells were plated into 96 well plates to a final concentration of 3×10^4 cells per well in 100 μl of media (DMEM (Sigma), 10% HI FCS, 1% non-essential amino acids, 2 mM Glutamine, 500 μg ml^−1 G418, (all from Life Technologies)). Cells were allowed to equilibrate for 48 hours. Putative anti-OSM solid compounds were made up to a stock dilution of 20 mM in DMSO and serially diluted 1:3 in DMSO. This was then further diluted in HepG26B assay media, this is as above media but with 1% heat inactivated FCS, low alkaline phosphatase activity (Life Technologies) substituted for 10% HI FCS. Compounds were diluted 1:3 from a top concentration of […] to a final concentration of 0.09 μM in a final concentration of 1% DMSO. (That is 200, 66.67, 22.22, 7.41, 2.47, 0.82, 0.27, 0.09 and 0 μM). The old media was removed from the wells and replaced with diluted compound also containing 2 ng ml^−1 OSM (R&D Systems), cells were incubated for a further 20 hours. Each dilution was performed in triplicate. 20 μl of media was removed from each well and assayed for sPAP activity using pNPP (p-Nitrophenyl phosphate; Sigma), as a substrate. Endogenous alkaline phosphatase is blocked with L-homoarginine. Optical density of substrate is read at 405-650 nm. Concentration of compound is plotted against OD as a measure of sPAP produced and can be analysed to determine IC50 values.

[3] = target: T1, L-selectin (Homo sapiens, UniProt P14151); assay: Stimulation of PBMC via L-selectin: OSM secretion (ELISA); format: cell-based; settings: 24 hr incubation
T1 construct: endogenous in cells; host or cells: human peripheral blood mononuclear cells (buffy coats)
T1 sequence (P14151 39-372): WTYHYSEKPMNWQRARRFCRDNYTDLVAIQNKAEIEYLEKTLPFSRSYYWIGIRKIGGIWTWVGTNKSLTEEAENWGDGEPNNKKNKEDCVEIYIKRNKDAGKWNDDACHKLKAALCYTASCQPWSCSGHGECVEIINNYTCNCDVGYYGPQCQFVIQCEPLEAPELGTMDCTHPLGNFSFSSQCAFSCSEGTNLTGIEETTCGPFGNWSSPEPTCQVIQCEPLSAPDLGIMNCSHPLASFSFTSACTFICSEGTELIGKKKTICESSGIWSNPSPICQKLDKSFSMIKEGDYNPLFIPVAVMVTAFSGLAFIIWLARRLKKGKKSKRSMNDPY
Protocol: Mononuclear cells were isolated from human buffy coats as described above. 5×10^5 cells were plated out in 0.5 ml volumes and incubated for 24 hr at 37° C., 5% CO2 with 60-80 kD M. wt. fucoidan (Sigma) anti-L-selectin monoclonal antibodies, LAM1-3 and TQ1 or an isotype matched control IgG antibody (all from Coulter). Supernatants were assayed for OSM using a specific ELISA assay (Quantikine, R&D Systems), according to the Manufacturer's instructions.
Mononuclear cells from healthy donors were incubated for 24 hrs with anti-human L-selectin antibodies, (either TQ1 or LAM-1), or an isotype-matched control antibody and culture supernatants assayed by ELISA for OSM. […] The ability of the L-selectin agonist fucoidan to induce OSM from mononuclear cell cultures was then investigated.

[4] = target: T2, gp130-Fc (Homo sapiens, UniProt P40189); assay: Competition of OSM-GST with plate-bound wild type OSM for binding to gp130-Fc (ELISA)
T2 construct: DNA encoding the extracellular domain of human gp130 was amplified; made in house; host or cells: insect cells (Bac-to-Bac baculovirus) for gp130-Fc; E. coli BLR-DE3 for OSM
T2 sequence (P40189 23-619 limits assumed): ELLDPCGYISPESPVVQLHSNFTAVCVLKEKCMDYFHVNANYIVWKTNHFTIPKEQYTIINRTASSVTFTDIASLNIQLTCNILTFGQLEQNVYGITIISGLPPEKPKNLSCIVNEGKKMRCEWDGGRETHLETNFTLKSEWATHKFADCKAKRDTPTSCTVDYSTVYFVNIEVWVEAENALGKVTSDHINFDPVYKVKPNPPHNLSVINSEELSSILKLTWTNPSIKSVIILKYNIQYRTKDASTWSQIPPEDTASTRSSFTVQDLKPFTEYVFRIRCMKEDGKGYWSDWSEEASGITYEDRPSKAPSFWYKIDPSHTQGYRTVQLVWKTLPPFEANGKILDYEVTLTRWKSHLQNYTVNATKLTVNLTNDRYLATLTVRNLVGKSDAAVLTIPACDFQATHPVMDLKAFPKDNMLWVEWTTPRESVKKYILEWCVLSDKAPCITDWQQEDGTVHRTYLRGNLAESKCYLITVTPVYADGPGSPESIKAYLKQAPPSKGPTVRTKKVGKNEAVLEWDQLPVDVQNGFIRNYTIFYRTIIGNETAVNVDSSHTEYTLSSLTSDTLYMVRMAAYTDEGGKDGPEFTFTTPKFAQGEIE
Protocol: Nunc Immunoplates (F6 Maxisorp, Life Technologies) were coated overnight (4° C.) with wild type OSM (produced according to Example 7a); 50 μl/well, 1 μg/ml in carbonate/bicarbonate buffer pH 9.4). Plates were washed (×6 in PBS 0.05% tween 20, using Skatron Plate washer), tapped dry and blocked to reduce non-specific binding (200 μl/well, 1% BSA/PBS). Following 1 h incubation (room temperature on a shaking platform) the plates were tapped dry and wild type (wt) or mutant OSM-GST from Example 9b added (50 μl/well, 20-0.002 μg/ml, titrated in 1%BSA/PBS). As a positive control polyclonal anti-human OSM antibody (R&D Systems) was also tested (20-0.02 μg/ml). A complex of gp130-Fc (Produced as below 300 ng/ml) and anti-human IgG alkaline phosphatase conjugate (1:500, Sigma) in 1% BSA/PBS (50 μl/well) was added immediately after the agents under test. Following a 5 h incubation (room temperature on a shaking platform) the plates were washed (×6) and developed using ELISA Amplification System (Life Technologies) as manufacturer's instructions and the OD measured at 490 nm. On each plate the total binding was determined by gp130-Fc/conjugate and OSM in the presence of 1% BSA/PBS, and non-specific binding by gp130-Fc/conjugate in absence of OSM, or conjugate binding to OSM in absence of gp130-Fc.
Mutant and wt OSM-GST were tested to obtain IC50 in 3-6 experiments. The mean OD in the presence of OSM and gp130-Fc in the absence of competing ligand (i.e., total binding) was 1.157 (range 0.825-1.807) and the non specific binding was less than 0.08.

[5] = system: HepG2 B6 cells (STAT-sPAP reporter); assay: OSM-GST mutant driven sPAP production in HepG2 B6 assay; format: cell-based, human
Protocol: as §1
The assay described in Example 7b above was employed. OSM-GST mutants were diluted to a concentration of 100 ng ml^−using the known concentration of intact OSM mutants generated in Example 9b. A wild type OSM-GST was included for control purposes. Dilutions were made in HepG2 B6 media with 1% heat inactivated FCS, low alkaline phosphatase activity. Serial 1:3 dilutions were then made. (100; 33.33; 11.11; 3.7; 1.23; 0.4 ng ml^−1). 3×10^4 HepG2 B6 were dispensed into individual well of a 96 well plate in 100 μl of media. Cells were allowed to equilibrate for 48 hours. Media was then removed and replaced with 100 μl of diluted OSM-GST mutant. Cells were incubated for a further 20 hours. Each dilution was performed in triplicate. 20 μl of media was removed and assayed for sPAP using pNPP as a substrate. Endogenous ALP was blocked with L-homoarginine. O.D. was read at 405-650 nm. The experiment was repeated twice.

IC50 ([1]; Homo sapiens, A549, 3 ng/ml TNFα, 20 hours, read-out: approx. IC50, inhibition of TNFα-induced sPAP): ~92 µM
IC50 ([2]; Homo sapiens, HepG2, 2 ng/ml OSM, 20 hours, read-out: IC50, inhibition of OSM-induced sPAP release): 0.3 µM
Molecule: O=C(Nc1ncnc2[nH]ncc12)c1ccccc1 [GW 340442X, N-(1H-pyrazolo[3,4-d]pyrimidin-4-yl)benzamide]
inhibition of TNFα-induced sPAP release ([1]; A549 cells): limited inhibition
inhibition of OSM-induced sPAP release ([2]; HepG2 B6): concentration-dependent inhibition
selectivity for OSM over TNFα ([2]; from sPAP IC50 values): greater than 100 fold

OSM secretion by mononuclear cells [3]: powerful stimulant of OSM secretion
Molecule: fucoidan

ability to compete with wt OSM for gp130 binding [4]: substantial decrease
Expt 1 EC50 [5]: 0.0302 µg/mL
Expt 2 EC50 [5]: 0.0362 µg/mL
B1: (23) N124A: OSM-GST fusion, alanine for Asn 124 (protein)
chain: AAIGSCSKEYRVLLGQLQKQTDLMQDTSRLLDPYIRIQGLDVPKLREHCRERPGAFPSEETLRGLGRRGFLQTLNATLGCVLHRLADLEQRLPKAQDLERSGLNIEDLEKLQMARPNILGLRNAIYCMAQLLDNSDTAEPTKAGRGASQPPTPTPASDAFQRKLEGCRFLHGYHRFMHSVGRVFSKWGESPNRSRR
modifications: left off: a dimerising Fc or GST; large carriers; small tags and cut ends
'Potency' ([5]; relative to wild type, from Mean %): EQUAL (80-120% Equal potency)
